# Tested on: Staphylococcus aureus ATCC 29213
# Assay: MBC, agar aliquot subculture method, SA
# Type: cell-based
# Conditions: ATCC29213, 99.9% decrease in CFU, 24 h, 37 °C
# Excerpt: The activities of the individual derivatives were expressed as minimum inhibitory concentrations (MICs) and minimum bactericidal concentrations (MBCs) and are shown in Table 3 together with the values of the antibiotics used as standards for comparison. […] MBC values of bactericidal compounds are indicated in bold in Table 3.
# For the above-mentioned strains/isolates, the agar aliquot subculture method was used as a test for bactericidal agents. After the MIC value determination, the inoculum was transferred to CaMH (Oxoid) for staphylococci, and BHI (Oxoid) for enterococci medium using a multipoint inoculator. The plates were incubated in a thermostat at 37 °C for 24 h. The lowest concentration of test compound at which ≤5 colonies were obtained was then evaluated as MBC, corresponding to a 99.9% decrease in CFU relative to the original inoculum.
row,SMILES,MBC [µM]
1,"C#CCNS(=O)(=O)c1ccc(O)c2ncccc12 [3a, 8-Hydroxy-N-(prop-2-yn-1-yl)quinoline-5-sulfonamide]",122
2,"C#CC(C)(C)NS(=O)(=O)c1ccc(O)c2ncccc12 [3b, 8-Hydroxy-N-(1,1-dimethylprop-2-yn-1-yl)quinoline-5-sulfonamide]",110
3,"C#CCOc1ccccc1NS(=O)(=O)c1ccc(O)c2ncccc12 [3f, 8-Hydroxy-N-[2-(prop-2-yn-1-yloxy)phenyl]quinoline-5-sulfonamide]",45.2
4,"C#CCOc1ccc(NS(=O)(=O)c2ccc(O)c3ncccc23)cc1 [3d, 8-Hydroxy-N-[4-(prop-2-yn-1-yloxy)phenyl]quinoline-5-sulfonamide]",45.2
5,"C#CCN(C)S(=O)(=O)c1ccc(O)c2ncccc12 [3c, 8-Hydroxy-N-methyl-N-(prop-2-yn-1-yl)quinoline-5-sulfonamide]",29
6,"C#CCOc1cccc(NS(=O)(=O)c2ccc(O)c3ncccc23)c1 [3e, 8-Hydroxy-N-[3-(prop-2-yn-1-yloxy)phenyl]quinoline-5-sulfonamide]",45.2

# Tested on: C-32, A549, MDA-MB-231 and HFF-1 cells
# Assay: Crystal violet, WST-1 and LDH assays of 3c
# Type: cell-based
# Conditions: 3c in medium above 0.3 µM, 72 h; particularly in A549 and MDA-MB-231 cells
# Procedure: The effect of the compound on cell viability was determined using, in addition to the WST-1 assay, the crystal violet assay and the LDH (lactate dehydrogenase) assay. Furthermore, a wound healing test (indicator of cell proliferation and migration capacity) and assessment of gene expression (in the transcription phase) of BCL-2, BAX, TP53, P21, and H3 were performed.
# An increase in the number of dead cells is shown by the absorbance line in the LDH test.
# Cells were seeded in 96-well plates at 5000/well in 100 μL of medium. After 24 h of incubation, the medium was replaced with a new one with the addition of the test substance. […]
# Crystal violet test: The crystal violet (Sigma-Aldrich, Darmstadt, Germany) test determines the relative number of cells based on the amount of dye bound to the DNA of cells in the culture. The absorbance measurement was performed at a wavelength of λ = 540 nm (reference wavelength λ = 690 nm).
# WST-1 test: The WST-1 test (Roche Diagnostics, Mannheim, Germany) allows one to determine the relative number of cells in cultures. Absorbance is directly proportional to the number of cells and their metabolic activity. The absorbance measurement is performed at λ = 450 nm (reference wave 600 nm). […]
row,SMILES,cell number in cultures (cell viability and cytotoxicity assays)
1,"C#CCN(C)S(=O)(=O)c1ccc(O)c2ncccc12 [3c, 8-Hydroxy-N-methyl-N-(prop-2-yn-1-yl)quinoline-5-sulfonamide]",significant decrease in cell number

# Tested on: vancomycin-resistant E. faecalis VRE 342B
# Assay: MIC, microtitration broth method, VRE1
# Type: cell-based
# Conditions: Enterococcus faecalis, 24 h, 37 °C, BHI broth
# Excerpt: (§1) Since there is a general decrease in immunity during the treatment of oncological patients, i.e., patients are more susceptible to infectious diseases, it is advantageous if anticancer agents show antimicrobial properties at the same time. Therefore, the effects of the compounds were also investigated against Gram-positive bacteria. For this purpose, the susceptible collection strains of aerobic Staphylococcus aureus ATCC 29213 and facultatively aerobic Enterococcus faecalis ATCC 29212 and resistant clinical isolates of methicillin-resistant S. aureus (MRSA) SA 3202, SA 630 carrying the mecA gene, and vancomycin-resistant isolates of E. faecalis (VRE) 342B, 368, and 725B carrying the vanA gene were selected. Thus, the selection of the studied bacterial strains was adopted following the CLSI ([…]) international reference methodologies.
# (§2) The in vitro antibacterial activity of the synthesized compounds was evaluated against representatives of multidrug-resistant bacteria, […] clinical isolates of methicillin-resistant S. aureus: clinical isolates of human origin, MRSA SA 3202, and MRSA SA 630 (National Institute of Public Health, Prague, Czech Republic), carrying the mecA gene. These two clinical isolates were classified as vancomycin-susceptible (but with a higher MIC of vancomycin equal to 2 μg/mL (VA2-MRSA). Vancomycin- and methicillin-susceptible S. aureus ATCC 29213 and vancomycin-susceptible Enterococcus faecalis ATCC 29212, obtained from the American Type Culture Collection, were used as the reference and quality control strains. Three vanA gene-carrying vancomycin-resistant isolates of E. faecalis (VRE 342B, VRE 368, VRE 725B) (Department of Infectious Diseases and Microbiology, Faculty of Veterinary Medicine, University of Veterinary Sciences Brno, Czech Republic) were provided by Oravcova et al..
# (§3) The minimum inhibitory concentrations (MICs) were evaluated by the microtitration broth method according to the CLSI, with some modifications. The compounds were dissolved in DMSO (Sigma, St. Louis, MO, USA) to obtain a concentration of […] and diluted in a microtitration plate in an appropriate medium, i.e., Cation-Adjusted Mueller–Hinton Broth (CaMH, Oxoid, Basingstoke, UK) for staphylococci, and Brain Heart Infusion Broth (BHI, Oxoid) for enterococci to reach the final concentration of 256–0.125 µg/mL. Microtiter plates were inoculated with test microorganisms so that the final concentration of bacterial cells was 10^5. Ampicillin, oxacillin, and ciprofloxacin (Sigma) were used as reference drugs. A drug-free control and a sterility control were included. The plates were incubated for 24 h at 37 °C for staphylococci and enterococci. […] The experiments were repeated three times.
row,SMILES,MIC [µM]
1,"C#CCNS(=O)(=O)c1ccc(O)c2ncccc12 [3a, 8-Hydroxy-N-(prop-2-yn-1-yl)quinoline-5-sulfonamide]",977
2,"C#CC(C)(C)NS(=O)(=O)c1ccc(O)c2ncccc12 [3b, 8-Hydroxy-N-(1,1-dimethylprop-2-yn-1-yl)quinoline-5-sulfonamide]",883
3,"C#CCOc1ccccc1NS(=O)(=O)c1ccc(O)c2ncccc12 [3f, 8-Hydroxy-N-[2-(prop-2-yn-1-yloxy)phenyl]quinoline-5-sulfonamide]",362
4,"C#CCOc1ccc(NS(=O)(=O)c2ccc(O)c3ncccc23)cc1 [3d, 8-Hydroxy-N-[4-(prop-2-yn-1-yloxy)phenyl]quinoline-5-sulfonamide]",362
5,"C#CCN(C)S(=O)(=O)c1ccc(O)c2ncccc12 [3c, 8-Hydroxy-N-methyl-N-(prop-2-yn-1-yl)quinoline-5-sulfonamide]",464
6,"C#CCOc1cccc(NS(=O)(=O)c2ccc(O)c3ncccc23)c1 [3e, 8-Hydroxy-N-[3-(prop-2-yn-1-yloxy)phenyl]quinoline-5-sulfonamide]",362

# Tested on: methicillin-resistant S. aureus SA 3202
# Assay: MIC, microtitration broth method, MRSA1
# Type: cell-based
# Conditions: Staphylococcus aureus; 24 h, 37 °C, CaMH broth
# Excerpt: as §1, §2, §3
row,SMILES,MIC [µM]
1,"C#CCNS(=O)(=O)c1ccc(O)c2ncccc12 [3a, 8-Hydroxy-N-(prop-2-yn-1-yl)quinoline-5-sulfonamide]",122
2,"C#CC(C)(C)NS(=O)(=O)c1ccc(O)c2ncccc12 [3b, 8-Hydroxy-N-(1,1-dimethylprop-2-yn-1-yl)quinoline-5-sulfonamide]",55.2
3,"C#CCOc1ccccc1NS(=O)(=O)c1ccc(O)c2ncccc12 [3f, 8-Hydroxy-N-[2-(prop-2-yn-1-yloxy)phenyl]quinoline-5-sulfonamide]",45.2
4,"C#CCOc1ccc(NS(=O)(=O)c2ccc(O)c3ncccc23)cc1 [3d, 8-Hydroxy-N-[4-(prop-2-yn-1-yloxy)phenyl]quinoline-5-sulfonamide]",45.2
5,"C#CCN(C)S(=O)(=O)c1ccc(O)c2ncccc12 [3c, 8-Hydroxy-N-methyl-N-(prop-2-yn-1-yl)quinoline-5-sulfonamide]",29
6,"C#CCOc1cccc(NS(=O)(=O)c2ccc(O)c3ncccc23)c1 [3e, 8-Hydroxy-N-[3-(prop-2-yn-1-yloxy)phenyl]quinoline-5-sulfonamide]",45.2

# — article PMC11396667, “Design, Synthesis, and Anticancer and Antibacterial Activities of Quinoline-5-Sulfonamides” (Molecules, 2024)
